Laboratory results published in US10821195B2, “Compositions for therapeutics, targeted PET imaging and methods of their use” (Memorial Sloan Kettering Cancer Center, priority 2015, dated 2020).
Several values for one entry are separate records, joined by “and”; a condition that tells them apart may be missing. Equal values may be shown once.

Experiments:
[1] = Stability of ^89Zr complexes in human serum at 37° C. for 7 d (ITLC, SEC); details: for stability in human serum (ITLC and SEC): bare ligand complexes, one week
Method: Seven day old samples of the Zr-ligand complexes were run down a size exclusion column to differentiate protein and ligand.
Serum stability and immunoreactivity of ^89Zr-complexes were evaluated. To determine the stability in serum, ^89Zr-complexes were incubated in human serum at 37° C. for 7 d. The percentage of intact species was monitored by ITLC (Table 9).
^89Zr-ligand and ^89Zr-ligand-antibody complexes were prepared according to the radiolabeling protocol as described above. For each ^89Zr complex, samples were made consisting of 900 μL human serum and 100 μL of the ^89Zr species and were placed in a heat block at 37° C. with agitation. Samples were monitored using radio-TLC before being added to the serum and then after 1 week of incubation. The stability of the complexes was measured as the percentage of ^89Zr that was retained at the origin of the ITLC strip and therefore still intact.

[2] = EDTA transchelation challenge of ^89Zr complexes; assay type: physicochemical; details: 50-fold excess of EDTA, 37° C., various pHs, 7 days
From the text: (§1) In contrast, ^89Zr-HOPO is shown to be approximately impervious to the EDTA. […] This represents a significant improvement in the stability of the Zr-ligand complex at lower pH. […] Initially activity is seen in the bladder, gall bladder, and intestines.

[3] = Biodistribution and clearance of ^89Zr-HOPO and ^89Zr-DFO in healthy mice; assay type: in vivo, healthy athymic nude mice; parameters: biodistribution Spleen / biodistribution Stomach / biodistribution Large Intestine / biodistribution Small Intestine / biodistribution Kidney / biodistribution Bladder / biodistribution Muscle / biodistribution Bone / biodistribution Tail / biodistribution Blood / biodistribution Heart / biodistribution Lung / biodistribution Gall Bladder / biodistribution Liver: unit not given here; details: for clearance route: healthy mice
From the text: Significant uptake of ^89Zr-HOPO occurs in the gall bladder and intestines as well as the kidney. […] As ^89Zr-DFO is cleared exclusively through the kidneys and not through the hepatobiliary system, it is excreted from the body faster than ^89Zr-HOPO, as evidenced by the blood clearance curve (FIG. 10). While not wishing to be bound to theory, upon conjugation to an antibody, the pharmacokinetics of a ^89Zr-HOPO complex comprising ^89Zr-HOPO and an antibody can be superseded by those of the biomacromolecule, meaning that a difference in clearance pathways between ^89Zr-HOPO and ^89Zr-DFO should not be a concern. However, over the short circulation time of the Zr-ligand complexes, neither DFO nor HOPO show any signs of instability or bone accumulation.

[4] = Partition coefficients of ^89Zr complexes at pH 7.4; assay type: physicochemical
From the text: Without having to be bound to any theory, the difference in clearance pathways between the two complexes is the difference in their partitions coefficients.

[5] = FIG. 2
From the text: Table printed on a drawing sheet, FIG. 2
as §1
First reader's note: Cell hatching encodes the percent-intact class given in the legend; the values show stability of the radiometal-chelator complexes against EDTA transchelation.

CC(=O)N(O)CCCCCNC(=O)CCC(=O)N(O)CCCCCNC(=O)CCC(=O)N(O)CCCCCNC(=S)Nc1ccc(N=C=S)cc1 (89Zr complex, metal not drawn) [p-SCN-Bn-DFO]
percentage of intact species, Ligand Only ([1]; ^89Zr-ligand complex, human serum, 7 d, ITLC): 97.7±0.2%

O=C1NCCCN2CCCCN3CCCNC(=O)c4cccc(=O)n4[O][89Zr]([O]n4c1cccc4=O)([O]n1c(cccc1=O)C2=O)[O]n1c(cccc1=O)C3=O [^89Zr-HOPO]
stability to transchelation by EDTA [2]: remains intact for the full 7 days | biodistribution Bladder ([3]; 10 min): 2.04 ± 1.06 | biodistribution Blood ([3]; 10 min): 3.24 ± 0.66 | biodistribution Bone ([3]; 10 min): 1.04 ± 0.44 | biodistribution Gall Bladder ([3]; 10 min): 6.61 ± 2.87 | biodistribution Heart ([3]; 10 min): 1.57 ± 0.22 | biodistribution Kidney ([3]; 10 min): 9.46 ± 2.71 | biodistribution Large Intestine ([3]; 10 min): 0.26 ± 0.15 | biodistribution Liver ([3]; 10 min): 3.29 ± 0.75 | biodistribution Lung ([3]; 10 min): 1.07 ± 0.17 | biodistribution Muscle ([3]; 10 min): 0.36 ± 0.06 | biodistribution Small Intestine ([3]; 10 min): 5.99 ± 1.18 | biodistribution Spleen ([3]; 10 min): 0.31 ± 0.04 | biodistribution Stomach ([3]; 10 min): 1.22 ± 0.39 | biodistribution Tail ([3]; 10 min): 4.25 ± 1.46 | Blood/Bone ratio ([3]; 1 h): 0.6 ± 0.4 | Muscle/Bone ratio ([3]; 1 h): 0.34 ± 0.15 | biodistribution Bladder ([3]; 1 h): 0.73 ± 0.36 | biodistribution Blood ([3]; 1 h): 0.17 ± 0.10 | biodistribution Bone ([3]; 1 h): 0.29 ± 0.09 | biodistribution Gall Bladder ([3]; 1 h): 6.94 ± 3.38 | biodistribution Heart ([3]; 1 h): 0.12 ± 0.06 | biodistribution Kidney ([3]; 1 h): 1.05 ± 0.51 | biodistribution Large Intestine ([3]; 1 h): 0.09 ± 0.06 | biodistribution Liver ([3]; 1 h): 0.22 ± 0.09 | biodistribution Lung ([3]; 1 h): 0.17 ± 0.09 | biodistribution Muscle ([3]; 1 h): 0.10 ± 0.03 | biodistribution Small Intestine ([3]; 1 h): 1.11 ± 0.35 | biodistribution Spleen ([3]; 1 h): 0.09 ± 0.03 | biodistribution Stomach ([3]; 1 h): 0.30 ± 0.15 | biodistribution Tail ([3]; 1 h): 0.81 ± 0.34 | Blood/Bone ratio ([3]; 4 h): 0.2 ± 0.2 | Muscle/Bone ratio ([3]; 4 h): 0.4 ± 0.3 | biodistribution Bladder ([3]; 4 h): 0.58 ± 0.27 | biodistribution Blood ([3]; 4 h): 0.05 ± 0.04 | biodistribution Bone ([3]; 4 h): 0.23 ± 0.12 | biodistribution Gall Bladder ([3]; 4 h): 1.00 ± 0.41 | biodistribution Heart ([3]; 4 h): 0.06 ± 0.01 | biodistribution Kidney ([3]; 4 h): 0.40 ± 0.14 | biodistribution Large Intestine ([3]; 4 h): 7.17 ± 2.15 | biodistribution Liver ([3]; 4 h): 0.13 ± 0.01 | biodistribution Lung ([3]; 4 h): 0.08 ± 0.01 | biodistribution Muscle ([3]; 4 h): 0.09 ± 0.06 | biodistribution Small Intestine ([3]; 4 h): 0.12 ± 0.13 | biodistribution Spleen ([3]; 4 h): 0.06 ± 0.01 | biodistribution Stomach ([3]; 4 h): 0.50 ± 0.74 | biodistribution Tail ([3]; 4 h): 0.29 ± 0.18 | biodistribution Bladder ([3]; 12 h): 0.54 ± 0.26 | biodistribution Blood ([3]; 12 h): 0.02 ± 0.00 | biodistribution Bone ([3]; 12 h): 0.25 ± 0.07 | biodistribution Gall Bladder ([3]; 12 h): 2.45 ± 1.02 | biodistribution Heart ([3]; 12 h): 0.06 ± 0.01 | biodistribution Kidney ([3]; 12 h): 0.53 ± 0.23 | biodistribution Large Intestine ([3]; 12 h): 0.10 ± 0.03 | biodistribution Liver ([3]; 12 h): 0.09 ± 0.02 | biodistribution Lung ([3]; 12 h): 0.06 ± 0.01 | biodistribution Muscle ([3]; 12 h): 0.06 ± 0.01 | biodistribution Small Intestine ([3]; 12 h): 0.02 ± 0.01 | biodistribution Spleen ([3]; 12 h): 0.05 ± 0.01 | biodistribution Stomach ([3]; 12 h): 0.01 ± 0.00 | biodistribution Tail ([3]; 12 h): 0.11 ± 0.04 | Blood/Bone ratio ([3]; 1 d): 0.12 ± 0.02 | Muscle/Bone ratio ([3]; 1 d): 0.35 ± 0.09 | biodistribution Bladder ([3]; 24 h): 0.28 ± 0.14 | biodistribution Blood ([3]; 24 h): 0.02 ± 0.00 | biodistribution Bone ([3]; 24 h): 0.17 ± 0.03 | biodistribution Gall Bladder ([3]; 24 h): 1.15 ± 0.59 | biodistribution Heart ([3]; 24 h): 0.07 ± 0.01 | biodistribution Kidney ([3]; 24 h): 0.51 ± 0.29 | biodistribution Large Intestine ([3]; 24 h): 0.03 ± 0.02 | biodistribution Liver ([3]; 24 h): 0.06 ± 0.03 | biodistribution Lung ([3]; 24 h): 0.06 ± 0.05 | biodistribution Muscle ([3]; 24 h): 0.06 ± 0.01 | biodistribution Small Intestine ([3]; 24 h): 0.02 ± 0.00 | biodistribution Spleen ([3]; 24 h): 0.06 ± 0.01 | biodistribution Stomach ([3]; 24 h): 0.02 ± 0.00 | biodistribution Tail ([3]; 24 h): 0.05 ± 0.01 | Blood/Bone ratio ([3]; […]): 3.1 ± 1.5 | Muscle/Bone ratio ([3]; […]): 0.35 ± 0.16 | clearance route [3]: cleared through both renal and hepatobiliary excretion | partition coefficient (lipophilicity) [4]: more lipophilic than ^89Zr-DFO | % INTACT STARTING SPECIES BY INCUBATION TIME | 1 h [5]: 99.8±0.4% and 99.3±1.3% and 99.0±1.8% | % INTACT STARTING SPECIES BY INCUBATION TIME | 7 d [5]: 99.6±0.7% and 99.2±1.5% | % INTACT STARTING SPECIES BY INCUBATION TIME | INITIAL [5]: 99.7±0.6% and 99.5±0.9% | stability in human serum (ITLC and SEC) [1]: stable in serum over 7 days

CC(=O)N1CCCCCNC(=O)CCC(=O)N2CCCCCNC(=O)CCC(=O)N(CCCCCN)[O][89Zr+]([O]1)[O]2 [^89Zr-DFO]
stability to transchelation by EDTA [2]: susceptible to transchelation | biodistribution Bladder ([3]; 10 min): 2.50 ± 0.48 | biodistribution Blood ([3]; 10 min): 5.11 ± 0.90 | biodistribution Bone ([3]; 10 min): 0.43 ± 0.10 | biodistribution Gall Bladder ([3]; 10 min): 1.57 ± 0.25 | biodistribution Heart ([3]; 10 min): 2.17 ± 0.62 | biodistribution Kidney ([3]; 10 min): 14.44 ± 5.88 | biodistribution Large Intestine ([3]; 10 min): 0.43 ± 0.13 | biodistribution Liver ([3]; 10 min): 0.88 ± 0.49 | biodistribution Lung ([3]; 10 min): 2.16 ± 1.08 | biodistribution Muscle ([3]; 10 min): 0.73 ± 0.56 | biodistribution Small Intestine ([3]; 10 min): 0.94 ± 0.16 | biodistribution Spleen ([3]; 10 min): 0.37 ± 0.22 | biodistribution Stomach ([3]; 10 min): 0.62 ± 0.28 | biodistribution Tail ([3]; 10 min): 5.13 ± 2.92 | biodistribution Bladder ([3]; 1 h): 2.47 ± 1.30 | biodistribution Blood ([3]; 1 h): 0.10 ± 0.04 | biodistribution Bone ([3]; 1 h): 0.07 ± 0.04 | biodistribution Gall Bladder ([3]; 1 h): 0.47 ± 0.14 | biodistribution Heart ([3]; 1 h): 0.06 ± 0.02 | biodistribution Kidney ([3]; 1 h): 1.39 ± 0.55 | biodistribution Large Intestine ([3]; 1 h): 0.02 ± 0.01 | biodistribution Liver ([3]; 1 h): 0.24 ± 0.07 | biodistribution Lung ([3]; 1 h): 0.14 ± 0.04 | biodistribution Muscle ([3]; 1 h): 0.02 ± 0.01 | biodistribution Small Intestine ([3]; 1 h): 0.35 ± 0.17 | biodistribution Spleen ([3]; 1 h): 0.06 ± 0.02 | biodistribution Stomach ([3]; 1 h): 1.10 ± 0.51 | biodistribution Tail ([3]; 1 h): 0.26 ± 0.05 | biodistribution Bladder ([3]; 4 h): 1.22 ± 0.77 | biodistribution Blood ([3]; 4 h): 0.03 ± 0.01 | biodistribution Bone ([3]; 4 h): 0.04 ± 0.02 | biodistribution Gall Bladder ([3]; 4 h): 0.26 ± 0.15 | biodistribution Heart ([3]; 4 h): 0.03 ± 0.01 | biodistribution Kidney ([3]; 4 h): 1.10 ± 0.44 | biodistribution Large Intestine ([3]; 4 h): 0.62 ± 0.55 | biodistribution Liver ([3]; 4 h): 0.12 ± 0.03 | biodistribution Lung ([3]; 4 h): 0.04 ± 0.02 | biodistribution Muscle ([3]; 4 h): 0.01 ± 0.01 | biodistribution Small Intestine ([3]; 4 h): 0.04 ± 0.02 | biodistribution Spleen ([3]; 4 h): 0.03 ± 0.01 | biodistribution Stomach ([3]; 4 h): 0.06 ± 0.02 | biodistribution Tail ([3]; 4 h): 0.14 ± 0.08 | biodistribution Bladder ([3]; 12 h): 0.69 ± 0.31 | biodistribution Blood ([3]; 12 h): 0.01 ± 0.00 | biodistribution Bone ([3]; 12 h): 0.03 ± 0.01 | biodistribution Gall Bladder ([3]; 12 h): 0.16 ± 0.14 | biodistribution Heart ([3]; 12 h): 0.02 ± 0.00 | biodistribution Kidney ([3]; 12 h): 0.36 ± 0.13 | biodistribution Large Intestine ([3]; 12 h): 0.07 ± 0.05 | biodistribution Liver ([3]; 12 h): 0.06 ± 0.02 | biodistribution Lung ([3]; 12 h): 0.02 ± 0.01 | biodistribution Muscle ([3]; 12 h): 0.01 ± 0.00 | biodistribution Small Intestine ([3]; 12 h): 0.01 ± 0.01 | biodistribution Spleen ([3]; 12 h): 0.02 ± 0.01 | biodistribution Stomach ([3]; 12 h): 0.01 ± 0.00 | biodistribution Tail ([3]; 12 h): 0.13 ± 0.05 | biodistribution Bladder ([3]; 24 h): 0.56 ± 0.41 | biodistribution Blood ([3]; 24 h): 0.02 ± 0.02 | biodistribution Bone ([3]; 24 h): 0.06 ± 0.01 | biodistribution Gall Bladder ([3]; 24 h): 0.23 ± 0.21 | biodistribution Heart ([3]; 24 h): 0.02 ± 0.01 | biodistribution Kidney ([3]; 24 h): 1.12 ± 0.33 | biodistribution Large Intestine ([3]; 24 h): 0.02 ± 0.01 | biodistribution Liver ([3]; 24 h): 0.11 ± 0.02 | biodistribution Lung ([3]; 24 h): 0.04 ± 0.01 | biodistribution Muscle ([3]; 24 h): 0.01 ± 0.00 | biodistribution Small Intestine ([3]; 24 h): 0.02 ± 0.01 | biodistribution Spleen ([3]; 24 h): 0.02 ± 0.01 | biodistribution Stomach ([3]; 24 h): 0.01 ± 0.01 | biodistribution Tail ([3]; 24 h): 0.08 ± 0.02 | clearance route [3]: clears exclusively through the kidneys | % INTACT STARTING SPECIES BY INCUBATION TIME | 1 h [5]: 99.9±0.2% and 97.1±0.8% and 86.6±1.5% | % INTACT STARTING SPECIES BY INCUBATION TIME | 3 h [5]: 99.3±0.6% and 98.8±0.9% and 98.7±0.8% and 96.2±0.6% and 90.7±1.7% and 55.7±3.8% | stability in human serum (ITLC and SEC) [1]: stable in serum over 7 days
